These results are taken from patent US11241434B2, “Compositions and methods for improving cognition in a subject” (Yale University, priority 2013, dated 2022).

This test has as its system mice with closed head injury (CHI) and chronic variable stress (CVS). Kind of test: Immunohistochemistry of cerebral cortex after head injury plus stress. It is filed as in vivo, mouse. The settings on record: subacute TBI/Stress mice. From the text: FIGS. 16A-16F illustrate the finding that AZD0530 treatment prevents phospho-Tau accumulation after head injury plus stress. […] Boxed area is shown at higher magnification inset. Scale bar, m. FIG. 16B: PHF-1 IHC quantification using ImageJ software measuring total stained area, yielded significant differences amongst the three groups. Data are mean±SEM. n=5/group, each dot is one mouse. One way ANOVA: F(2,12)=9.967, p=0.0028, Tukey's multiple comparison test: SV vs IV: p=0.0077, IV vs IA: p=0.0046. […] Scale bar, 20 μm. […] Data are mean±SEM. n=5/group, each dot is one mouse. […] Scale bar, 20 μm. […] Data are mean±SEM. n=5/group, each dot is one mouse.
Immunohistochemistry was performed as previously described (Kaufman et al., 2015, Ann Neurol 77:953-971) with slight modifications. Forty m coronal sections of the right hemisphere were cut with a Leica VT1000S Vibratome. Antigen retrieval was performed on the forty m free-floating sections by incubating three slices from each mouse in 1× Reveal decloaker buffer (Biocare Medical) in 24-well-plates for 10 minutes at 90° C. in an oven and then cooled down at room temperature for 10 minutes. The antigen retrieval step was done for PHF1, AT8, and GFAP stainings. Sections were permeabilized with 0.1% Triton X-100 at room temperature for 5 minutes for PHF1 and SV2A staining and for 30 minutes for CD68/Ibal, AT8, and GFAP. All sections were blocked with 10% donkey, horse, or goat serum in PBS for one hour at room temperature. The sections were then incubated in primary antibody in 4% donkey, horse, or goat serum in PBS overnight at room temperature. For SV2A and PHF1 stainings, primary antibodies were incubated at 4° C. rather than room temperature. […]
For imaging and analysis of sections from the transgenic Tauopathy studies, Nikon Eclipse Ti Spinning Disc Confocal Microscope was used with a 40×1.3 NA oil-immersion lens in Cargille immersion oil. […] The dentate gyrus, CA1, and CA3 of mice were imaged and the percent positive area for each staining was analyzed with a macro in ImageJ or a pipeline in CellProfiler. […]

In the case of `CN1CCN(CCOc2cc(OC3CCOCC3)c3c(Nc4c(Cl)ccc5c4OCO5)ncnc3c2)CC1` [saracatinib, N-(5-chloro-benzo[d][1,3]dioxol-4-yl)-7-(2-(4-methylpiperazin-1-yl)ethoxy)-5-(tetrahydro-2H-pyran-4-yloxy)quinazolin-4-amine], the “PHF-1 immunoreactivity area in cerebral cortex” value (0.5-1.0 mm medial to injury site) is on record as “dramatically reduced”. For the same compound, where the note is “three groups”, the “GFAP IHC % area” value is “did not result in groups differences” and the “total Tau IHC mean intensity” value is on record as “did not show significant differences”.
